Columns and labels:
cGVHD symptom burden = assay: Example 1: Lee Symptom Scale (LSS) score; type: in vivo, human
Experimental: Lee Symptom Scale (LSS) summary score measures the effect on patients' functioning and well-being. The Lee Symptom Scale is a 30-item scale developed to measure the symptoms of cGVHD and is described in Lec S J, Cook E F, Soiffer R, Antin J H. Development and validation of a scale to measure symptoms of chronic graft-versushost disease. Biol Blood Marrow Transplant 2002; 8:444-452.
All responses were assessed by the investigators.
Change From Baseline in Overall Score on Lee cGvHD Symptom Scale at Specified Time Points. Lee cGVHD symptom scale, a patient-reported symptom scale used to measure symptom burden and has 7 subscales (Skin, Eyes and Mouth, Breathing, Eating and Digestion, Muscles and Joints, Energy, and Mental and Emotional) with ratings as follows: 0—Not at all, 1—Slightly, 2—Moderately, 3—Quite a bit, 4—Extremely, with lower values representing better outcome. Score for each subscale was normalized to a score ranged from 0 to 100, where higher score=worse symptoms. An overall score was calculated as average of these 7 subscales. EOT visit was performed within 3 days after the participant's last dose of study drug. Baseline value was defined as valid and last non-missing value obtained within 28 days prior to participant receiving first study medication. […] Analysis was performed on mITT population. Here, ‘number analyzed’=participants with available data for each specified category. Here, ‘0’ in the number analyzed field signifies that none of the participants were available for the analysis at the specified time points.

[1] = pharmacokinetics in chronic GVHD patients; type: in vivo, human; conditions: 200 and 400 mg
UGT1A1 = molecular target: T1, UGT1A1 (Homo sapiens, UniProt P22309); assay: enzyme inhibition in vitro; type: in vitro ADME
T1 sequence (P22309 26-533): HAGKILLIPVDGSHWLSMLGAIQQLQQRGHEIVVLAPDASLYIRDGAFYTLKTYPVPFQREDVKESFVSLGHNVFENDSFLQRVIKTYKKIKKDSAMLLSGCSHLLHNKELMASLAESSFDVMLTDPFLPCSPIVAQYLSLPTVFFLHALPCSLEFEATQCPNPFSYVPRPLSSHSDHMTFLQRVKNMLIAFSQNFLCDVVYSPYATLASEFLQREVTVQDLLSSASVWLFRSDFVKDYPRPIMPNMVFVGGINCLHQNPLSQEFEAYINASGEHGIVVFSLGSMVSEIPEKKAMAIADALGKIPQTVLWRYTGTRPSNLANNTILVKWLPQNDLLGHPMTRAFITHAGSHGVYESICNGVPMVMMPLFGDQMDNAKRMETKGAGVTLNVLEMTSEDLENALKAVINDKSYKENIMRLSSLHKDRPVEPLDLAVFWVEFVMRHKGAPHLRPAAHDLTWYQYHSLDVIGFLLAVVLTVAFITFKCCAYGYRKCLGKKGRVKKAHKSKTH

Question: With `CC(C)NC(=O)COc1cccc(-c2nc(Nc3ccc4[nH]ncc4c3)c3ccccc3n2)c1` [Belumosudil, 2-{3-[4-(1H-indazol-5-ylamino)-2-quinazolinyl]phenoxy}-N-(propan-2-yl) acetamide] as the molecule, how does the “Change From Baseline in Overall Score on Lee cGvHD Symptom Scale, Mean (Standard Deviation)” value (shortened to “Change From Baseline … (Standard Deviation)”) (cGVHD symptom burden; Cohort 2: 200 mg BID, Cycle 10, Day 1) read?
Answer: −2.7 (6.1) score on a scale

Question: And the “Change From Baseline … (Standard Deviation)” value (cGVHD symptom burden; Cohort 2: 200 mg BID, Cycle 11, Day 1)?
Answer: −5.5 (6.0) score on a scale

Question: What about the “Change From Baseline … (Standard Deviation)” value (cGVHD symptom burden; Cohort 2: 200 mg BID, Cycle 12, Day 1) of the same molecule?
Answer: −7.6 (7.7) score on a scale

Question: What about the “Change From Baseline … (Standard Deviation)” value (cGVHD symptom burden; Cohort 2: 200 mg BID, Cycle 13, Day 1) of the same molecule?
Answer: −5.9 (8.8) score on a scale

Question: What about the “Change From Baseline … (Standard Deviation)” value (cGVHD symptom burden; Cohort 2: 200 mg BID, Cycle 14, Day 1) of the same molecule?
Answer: −5.0 (7.3) score on a scale

Question: What about the “Change From Baseline … (Standard Deviation)” value (cGVHD symptom burden; Cohort 2: 200 mg BID, Cycle 15, Day 1) of the same molecule?
Answer: −6.8 (7.0) score on a scale

Question: What about the “Change From Baseline … (Standard Deviation)” value (cGVHD symptom burden; Cohort 2: 200 mg BID, Cycle 16, Day 1) of the same molecule?
Answer: −6.9 (7.6) score on a scale

Question: What about the “Change From Baseline … (Standard Deviation)” value (cGVHD symptom burden; Cohort 2: 200 mg BID, Cycle 27, Day 1) of the same molecule?
Answer: −13.2 (6.6) score on a scale

Question: And the “Change From Baseline … (Standard Deviation)” value (cGVHD symptom burden; Cohort 2: 200 mg BID, Cycle 29, Day 1)?
Answer: −11.0 (7.3) score on a scale

Question: What about the “Change From Baseline … (Standard Deviation)” value (cGVHD symptom burden; Cohort 2: 200 mg BID, Cycle 31, Day 1) of the same molecule?
Answer: −15.6 (4.3) score on a scale

Question: What about the “Change From Baseline … (Standard Deviation)” value (cGVHD symptom burden; Cohort 2: 200 mg BID, Cycle 33, Day 1) of the same molecule?
Answer: −13.5 (9.0) score on a scale

Question: What about the “Change From Baseline … (Standard Deviation)” value (cGVHD symptom burden; Cohort 2: 200 mg BID, Cycle 35, Day 1) of the same molecule?
Answer: −11.0 (12.4) score on a scale

Question: And the “Change From Baseline … (Standard Deviation)” value (cGVHD symptom burden; Cohort 2: 200 mg BID, Cycle 37, Day 1)?
Answer: −13.6 (8.1) score on a scale

Question: What about the “Change From Baseline … (Standard Deviation)” value (cGVHD symptom burden; Cohort 2: 200 mg BID, Cycle 39, Day 1) of the same molecule?
Answer: −14.3 (8.5) score on a scale

Question: What about the “Change From Baseline … (Standard Deviation)” value (cGVHD symptom burden; Cohort 2: 200 mg BID, Cycle 41, Day 1) of the same molecule?
Answer: −19.3 (—) score on a scale

Question: What about the “Change From Baseline … (Standard Deviation)” value (cGVHD symptom burden; Cohort 2: 200 mg BID, Cycle 43, Day 1) of the same molecule?
Answer: −19.9 (—) score on a scale

Question: And the “Change From Baseline … (Standard Deviation)” value (cGVHD symptom burden; Cohort 2: 200 mg BID, Cycle 47, Day 1)?
Answer: −16.8 (—) score on a scale

Question: What about the “Change From Baseline … (Standard Deviation)” value (cGVHD symptom burden; Cohort 2: 200 mg BID, Cycle 49, Day 1) of the same molecule?
Answer: −15.4 (—) score on a scale

Question: What about the “Change From Baseline … (Standard Deviation)” value (cGVHD symptom burden; Cohort 2: 200 mg BID, EOT) of the same molecule?
Answer: −2.4 (10.9) score on a scale

Question: And the “LSS improvement, nonresponder, n/N” value (cGVHD symptom burden; Cohort 3 400 mg QD)?
Answer: 2/8

Question: And the “LSS improvement, responder, n/N” value (cGVHD symptom burden; Cohort 3 400 mg QD)?
Answer: 9/13

Question: And the “Change From Baseline … (Standard Deviation)” value (cGVHD symptom burden; Cohort 3: 400 mg QD, Cycle 2, Day 1)?
Answer: −5.2 (6.3) score on a scale

Question: What about the “Change From Baseline … (Standard Deviation)” value (cGVHD symptom burden; Cohort 3: 400 mg QD, Cycle 3, Day 1) of the same molecule?
Answer: −4.3 (8.2) score on a scale

Question: And the “Change From Baseline … (Standard Deviation)” value (cGVHD symptom burden; Cohort 3: 400 mg QD, Cycle 4, Day 1)?
Answer: −2.7 (8.2) score on a scale

Question: What about the “Change From Baseline … (Standard Deviation)” value (cGVHD symptom burden; Cohort 3: 400 mg QD, Cycle 5, Day 1) of the same molecule?
Answer: −0.5 (10.8) score on a scale

Question: What about the “Change From Baseline … (Standard Deviation)” value (cGVHD symptom burden; Cohort 3: 400 mg QD, Cycle 6, Day 1) of the same molecule?
Answer: −0.8 (9.3) score on a scale

Question: What about the “Change From Baseline … (Standard Deviation)” value (cGVHD symptom burden; Cohort 3: 400 mg QD, Cycle 7, Day 1) of the same molecule?
Answer: −2.0 (12.3) score on a scale

Question: What about the “Change From Baseline … (Standard Deviation)” value (cGVHD symptom burden; Cohort 3: 400 mg QD, Cycle 8, Day 1) of the same molecule?
Answer: −2.9 (10.9) score on a scale

Question: And the “Change From Baseline … (Standard Deviation)” value (cGVHD symptom burden; Cohort 3: 400 mg QD, Cycle 9, Day 1)?
Answer: −3.6 (10.2) score on a scale

Question: And the “Change From Baseline … (Standard Deviation)” value (cGVHD symptom burden; Cohort 3: 400 mg QD, Cycle 10, Day 1)?
Answer: −3.7 (9.9) score on a scale

Question: And the “Change From Baseline … (Standard Deviation)” value (cGVHD symptom burden; Cohort 3: 400 mg QD, Cycle 11, Day 1)?
Answer: −4.5 (6.1) score on a scale

Question: What about the “Change From Baseline … (Standard Deviation)” value (cGVHD symptom burden; Cohort 3: 400 mg QD, Cycle 12, Day 1) of the same molecule?
Answer: −2.8 (6.0) score on a scale

Question: What about the “Change From Baseline … (Standard Deviation)” value (cGVHD symptom burden; Cohort 3: 400 mg QD, Cycle 13, Day 1) of the same molecule?
Answer: −0.6 (7.1) score on a scale

Question: What about the “Change From Baseline … (Standard Deviation)” value (cGVHD symptom burden; Cohort 3: 400 mg QD, Cycle 14, Day 1) of the same molecule?
Answer: −1.5 (7.7) score on a scale

Question: What about the “Change From Baseline … (Standard Deviation)” value (cGVHD symptom burden; Cohort 3: 400 mg QD, Cycle 15, Day 1) of the same molecule?
Answer: −3.2 (8.2) score on a scale

Question: What about the “Change From Baseline … (Standard Deviation)” value (cGVHD symptom burden; Cohort 3: 400 mg QD, Cycle 16, Day 1) of the same molecule?
Answer: 1.9 (7.9) score on a scale

Question: And the “Change From Baseline … (Standard Deviation)” value (cGVHD symptom burden; Cohort 3: 400 mg QD, Cycle 27, Day 1)?
Answer: −6.0 (9.6) score on a scale

Question: What about the “Change From Baseline … (Standard Deviation)” value (cGVHD symptom burden; Cohort 3: 400 mg QD, Cycle 28, Day 1) of the same molecule?
Answer: 2.6 (—) score on a scale

Question: And the “Change From Baseline … (Standard Deviation)” value (cGVHD symptom burden; Cohort 3: 400 mg QD, Cycle 29, Day 1)?
Answer: −3.7 (13.0) score on a scale

Question: What about the “Change From Baseline … (Standard Deviation)” value (cGVHD symptom burden; Cohort 3: 400 mg QD, Cycle 31, Day 1) of the same molecule?
Answer: −12.9 (—) score on a scale

Question: What about the “Change From Baseline … (Standard Deviation)” value (cGVHD symptom burden; Cohort 3: 400 mg QD, Cycle 33, Day 1) of the same molecule?
Answer: −12.9 (—) score on a scale

Question: What about the “Change From Baseline … (Standard Deviation)” value (cGVHD symptom burden; Cohort 3: 400 mg QD, Cycle 35, Day 1) of the same molecule?
Answer: −12.9 (—) score on a scale

Question: And the “Change From Baseline … (Standard Deviation)” value (cGVHD symptom burden; Cohort 3: 400 mg QD, Cycle 39, Day 1)?
Answer: −12.9 (—) score on a scale

Question: And the “Change From Baseline … (Standard Deviation)” value (cGVHD symptom burden; Cohort 3: 400 mg QD, Cycle 41, Day 1)?
Answer: −12.9 (—) score on a scale

Question: What about the “Change From Baseline … (Standard Deviation)” value (cGVHD symptom burden; Cohort 3: 400 mg QD, Cycle 43, Day 1) of the same molecule?
Answer: −12.9 (—) score on a scale

Question: And the “Change From Baseline … (Standard Deviation)” value (cGVHD symptom burden; Cohort 3: 400 mg QD, Cycle 45, Day 1)?
Answer: −12.3 (—) score on a scale

Question: And the “Change From Baseline … (Standard Deviation)” value (cGVHD symptom burden; Cohort 3: 400 mg QD, Cycle 47, Day 1)?
Answer: −12.9 (—) score on a scale

Question: And the “Change From Baseline … (Standard Deviation)” value (cGVHD symptom burden; Cohort 3: 400 mg QD, Cycle 49, Day 1)?
Answer: −14.3 (—) score on a scale

Question: What about the “Change From Baseline … (Standard Deviation)” value (cGVHD symptom burden; Cohort 3: 400 mg QD, Cycle 51, Day 1) of the same molecule?
Answer: −12.9 (—) score on a scale

Question: And the “Change From Baseline … (Standard Deviation)” value (cGVHD symptom burden; Cohort 3: 400 mg QD, EOT)?
Answer: 2.5 (11.9) score on a scale

Question: And the “clinically meaningful LSS improvement on consecutive assessments, nonresponders” value (cGVHD symptom burden; Example 1)?
Answer: 32%

Question: And the “clinically meaningful LSS improvement on consecutive assessments, responders” value (cGVHD symptom burden; Example 1)?
Answer: 37%

Question: What about the “LSS improvement, nonresponder, n/N” value (cGVHD symptom burden; Total, N=54) of the same molecule?
Answer: 7/19

Question: What about the “LSS improvement, responder, n/N” value (cGVHD symptom burden; Total, N=54) of the same molecule?
Answer: 20/35

Question: What about the “clinically significant LSS improvement, overall, % (95% CI)” value (cGVHD symptom burden; Total, N=54) of the same molecule?
Answer: 50%

Question: And the “dose dependence of Cmax and AUC” value [1]?
Answer: approximately proportional

Question: And the “inhibition of UGT1A1” value (UGT1A1)?
Answer: inhibitor

— patent publication US20260027116A1, “Methods of Treating Chronic Graft-Versus-Host Disease Following Allogeneic Hematopoietic Stem Cell Transplantation” (Kadmon Corporation, LLC, priority 2022, published 2026)
